Laboratory results as given in patent US20260234150A1, “COMPOUND FOR INHIBITING NLRP3, PREPARATION METHOD, AND USE” (DOVETREE MEDICINES UNUS, INC., priority 2023, published 2026).
pIC50: −log10 of the molar value.

What was measured:
[1] = biological target: T1, hERG ion channel (Homo sapiens, UniProt Q12809); test: hERG ion channel inhibition, manual patch clamp in HEK293 cells; format: cell-based; settings: HEK293 cells stably expressing hERG, read-out: hERG(IC50, manupatch)
T1 construct: host or cells: HEK293
T1 sequence (Q12809 whole entry): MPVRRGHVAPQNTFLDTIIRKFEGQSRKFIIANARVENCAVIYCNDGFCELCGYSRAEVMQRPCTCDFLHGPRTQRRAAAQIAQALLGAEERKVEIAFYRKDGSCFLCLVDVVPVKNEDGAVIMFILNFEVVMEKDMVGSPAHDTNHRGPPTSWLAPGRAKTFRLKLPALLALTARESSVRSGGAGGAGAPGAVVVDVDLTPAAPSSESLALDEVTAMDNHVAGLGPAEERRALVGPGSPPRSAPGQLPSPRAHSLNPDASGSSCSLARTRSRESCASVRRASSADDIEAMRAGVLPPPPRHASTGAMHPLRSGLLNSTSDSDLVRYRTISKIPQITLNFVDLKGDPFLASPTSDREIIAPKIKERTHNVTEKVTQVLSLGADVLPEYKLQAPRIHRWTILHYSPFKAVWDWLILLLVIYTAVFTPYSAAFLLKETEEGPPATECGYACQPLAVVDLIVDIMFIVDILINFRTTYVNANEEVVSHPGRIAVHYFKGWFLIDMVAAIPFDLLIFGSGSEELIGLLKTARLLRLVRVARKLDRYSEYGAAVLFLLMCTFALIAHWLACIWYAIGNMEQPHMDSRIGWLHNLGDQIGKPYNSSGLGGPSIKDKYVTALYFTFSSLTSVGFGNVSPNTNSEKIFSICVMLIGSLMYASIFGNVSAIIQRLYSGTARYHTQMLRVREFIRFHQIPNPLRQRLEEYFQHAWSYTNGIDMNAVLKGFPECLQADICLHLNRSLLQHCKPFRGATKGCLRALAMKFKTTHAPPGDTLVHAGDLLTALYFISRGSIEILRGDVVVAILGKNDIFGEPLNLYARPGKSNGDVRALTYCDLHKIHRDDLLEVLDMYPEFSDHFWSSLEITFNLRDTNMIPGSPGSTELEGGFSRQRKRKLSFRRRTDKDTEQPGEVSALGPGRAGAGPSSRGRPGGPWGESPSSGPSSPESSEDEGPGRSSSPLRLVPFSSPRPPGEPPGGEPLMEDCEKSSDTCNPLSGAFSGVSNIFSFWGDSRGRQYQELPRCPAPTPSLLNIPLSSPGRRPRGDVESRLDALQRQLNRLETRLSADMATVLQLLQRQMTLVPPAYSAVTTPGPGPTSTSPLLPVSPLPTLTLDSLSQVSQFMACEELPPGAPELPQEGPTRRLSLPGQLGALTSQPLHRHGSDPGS
Experimental: This experiment used manual patch clamp electrophysiology to detect the inhibitory effect of compounds on hERG ion channels, and evaluated cardiac safety based on the single concentration inhibition rate or IC50 size of the compounds.
The cells used in this experiment are HEK293 cell lines transfected with hERG cDNA and stably expressing hERG channels (#60187, provided by BPS, P3-P23 generations are used for experimental research). Cells were cultured in a medium containing the following components: MEM medium, 10% (v/v) inactivated fetal bovine serum, 1 mM sodium pyruvate, […] geneticin, 0.1 mM non-essential amino acids, and 100 U penicillin-streptomycin. HEK293 hERG cells were grown in culture flasks containing the above culture medium and cultured in an incubator at 37° C. and 5% CO2. […]
The electrophysiological experiments were performed by a manual patch clamp system (HEKAEPC-10 signal amplifier and digital conversion system, purchased from HEKA Electronics, Germany) to record the whole-cell current. […] After the hERG current recorded in the above steps reaches stability under continuous perfusion of extracellular fluid in the recording tank, different concentrations of the test compound can be perfused until the inhibitory effect of the drug on the hERG current reaches a stable state. […]

[2] = tested on: iodoacetic acid (MIA)-induced SD rat knee osteoarthritis model; test: Iodoacetic acid (MIA)-induced SD rat knee osteoarthritis model; format: in vivo, SD rats; settings: 30 mg/kg orally once a day from Day 7 to Day 42; compared with model blank control group; 21 days to 42 days after modeling
Experimental: Purpose: Evaluate the efficacy of MCC950 (Positive reference compound) and compound 111 of the present disclosure on iodoacetic acid (MIA)-induced SD rat knee osteoarthritis model.
Experimental materials: Experimental male SD rats, 4 weeks old.
Model induction began after the experimental animals were adapted to the animal environment for 7 days. Day 0, the rats were anesthetized, the hair around the left knee joint was removed, and the skin was disinfected. The left leg was flexed 90° to expose the patellar platform. The depression in the middle of the platform was touched by hand to find the femoral condyle, patella and ligament. The syringe needle was inserted from the bottom of the patella on both sides of the patellar ligament to the direction of the femoral condyle. When a clear sense of empty space was felt, 50 μL of iodoacetic acid solution was injected. Day 7 Grouping was performed according to the width of the knee joint on the induced side. The groups were: normal control group (healthy control without modeling, 5% DMSO+10% Solutol+85% Saline), model blank control group (5% DMSO+10% Solutol+85% Saline), MCC950 30 mg/kg, and compound 111 of the present disclosure 30 mg/kg. Starting from Day 7, the normal control group and the model blank control group were given the solvent (5% DMSO+10% Solutol+85% Saline) orally once a day, and the other groups were given the corresponding compounds orally once a day until the end of the administration on Day 42. The knee joint width and body weight of the rats were measured once on Day 7, 14, 21, 28, 35, and 42.

Question: With CC(=O)N1CCOC[C@H]1CNc1nc2nc(-c3c(C)cc(C(F)(F)F)cc3O)ccc2o1 [Compound 111] as the compound, how does the pIC50 [1] read?
Answer: < 4.52

Question: And the “widening of the knee joints (knee joint width)” value [2]?
Answer: could significantly inhibit the widening of the knee joints
